From patent publication US9573904B2, “Aromatic compound and use thereof” (Sumitomo Chemical Company, Limited, priority 2013, dated 2017)

Tests used:
Format in all cases: in vivo
[1] = tested on: cucumber anthracnose fungus (Colletotrichum lagenarium); experiment: Test Example 9 and Comparative Test Example: cucumber anthracnose control, foliar spray; conditions: 200 ppm spray on cucumber (SAGAMI HANJIRO); inoculated one day after spraying
[2] = tested on: wheat rust fungus (Puccinia recondita); experiment: Test Example 2: wheat rust control, foliar spray; conditions: 500 ppm spray on wheat (SHIROGANE)
[3] = tested on: cucumber target leaf spot fungus (Corynespora cassiicola); experiment: Test Example 10: cucumber target leaf spot control, foliar spray; conditions: 200 ppm spray on cucumber (SAGAMI HANJIRO)

For COC(=O)Oc1ccccc1COc1ccc(C)cc1C [2-[(2,4-dimethylphenoxy)methyl]phenyl=methyl=carbonate], the “area of lesion on the treated plant relative to that on an untreated plant” value [1] was no less than 70%.
For CNC(=O)Oc1c(C)cccc1COc1ccc(-c2nn(C)c(Cl)c2C)cc1C [present compound 6], the “area of lesion on the treated plant relative to that on an untreated plant” value [2] was no more than 30%.
CNC(=O)Oc1cccc(C)c1COc1ccc(-c2nn(C)c(Cl)c2C)cc1C [present compound 7] was tested, and the “area of lesion on the treated plant relative to that on an untreated plant” value [3] was no more than 30%.
